Laboratory results taken from patent US20220339136A1, “LIPOSOMAL TROPONOID COMPOUND FORMULATIONS” (United States Government As Represented By The Department …, priority 2019, published 2022).

Tests used:
[1] = test system: WT S. aureus (ATCC 25923); settings: cited from earlier work
[2] = test system: Vancomycin Intermediate Staphylococcus aureus (VISA) strain AR219; settings: cited from earlier work; further: key: R: resistance; S: sensitive; I: intermediate; NS: nonsusceptible
[3] = test system: Vancomycin Intermediate Staphylococcus aureus (VISA) strain AR228; settings: cited from earlier work; further: key: R: resistance; S: sensitive; I: intermediate; NS: nonsusceptible
[4] = test system: Sa #10, mupirocin-resistant MDRSA; experiment: Killing of drug-resistant bacteria Sa #10; format: cell-based, Staphylococcus aureus; settings: troponoids formulated as liposomes
Solubility = format: physicochemical
S. aureus [5] = settings: cited from earlier work
mammal cell lines = settings: cited from earlier work
S. aureus [6] = settings: 4×MIC, in vitro; cited from earlier work
[7] = test system: multidrug-resistant Staphylococcus. aureus (MDRSA), including methicillin-resistant S. aureus (MRSA) strains; settings: cited from earlier work
[8] = insoluble as defined herein (less than 10 mg/l); cited from earlier work

CC[C@H]1OC(=O)[C@H](C)[C@@H](O[C@H]2C[C@@](C)(OC)[C@@H](O)[C@H](C)O2)[C@H](C)[C@@H](O[C@@H]2O[C@H](C)C[C@H](N(C)C)[C@H]2O)[C@](C)(O)C[C@@H](C)C(=O)[C@H](C)[C@@H](O)[C@]1(C)O [ERY, Erthromycin]
Antimicrobial susceptibility testing pattern (AST) [1]: S
Antimicrobial susceptibility testing pattern (AST) [2]: R
Antimicrobial susceptibility testing pattern (AST) [3]: R

CO[C@@]1(NC(=O)Cc2cccs2)C(=O)N2C(C(=O)O)=C(COC(N)=O)CS[C@@H]21 [FOX, Cefoxitin]
Antimicrobial susceptibility testing pattern (AST) [1]: Neg
Antimicrobial susceptibility testing pattern (AST) [2]: R
Antimicrobial susceptibility testing pattern (AST) [3]: R

CC(=O)NC[C@H]1CN(c2ccc(N3CCOCC3)c(F)c2)C(=O)O1 [LZD, Linezolid]
Antimicrobial susceptibility testing pattern (AST) [1]: S
Antimicrobial susceptibility testing pattern (AST) [2]: S
Antimicrobial susceptibility testing pattern (AST) [3]: S

C/C(=C\C(=O)OCCCCCCCCC(=O)O)C[C@@H]1OC[C@H](C[C@@H]2O[C@H]2[C@@H](C)[C@H](C)O)[C@@H](O)[C@H]1O [MUP, Mupirocin]
Antimicrobial susceptibility testing pattern (AST) [3]: R

Cc1onc(-c2ccccc2)c1C(=O)N[C@@H]1C(=O)N2[C@@H]1SC(C)(C)[C@@H]2C(=O)O [OXA, Oxacillin]
Antimicrobial susceptibility testing pattern (AST) [1]: S
Antimicrobial susceptibility testing pattern (AST) [2]: R
Antimicrobial susceptibility testing pattern (AST) [3]: R

CO[C@H]1/C=C/O[C@@]2(C)Oc3c(C)c(O)c4c(O)c(c(/C=N/N5CCN(C)CC5)c(O)c4c3C2=O)NC(=O)/C(C)=C\C=C\[C@H](C)[C@H](O)[C@@H](C)[C@@H](O)[C@@H](C)[C@H](OC(C)=O)[C@@H]1C [RIF, Rifampin]
Antimicrobial susceptibility testing pattern (AST) [1]: S
Antimicrobial susceptibility testing pattern (AST) [2]: R
Antimicrobial susceptibility testing pattern (AST) [3]: S

CN[C@H](CC(C)C)C(=O)N[C@H]1C(=O)N[C@@H](CC(N)=O)C(=O)N[C@H]2C(=O)N[C@H]3C(=O)N[C@H](C(=O)N[C@H](C(=O)O)c4cc(O)cc(O)c4-c4cc3ccc4O)[C@H](O)c3ccc(c(Cl)c3)Oc3cc2cc(c3O[C@@H]2O[C@H](CO)[C@@H](O)[C@H](O)[C@H]2O[C@H]2C[C@](C)(N)[C@H](O)[C@H](C)O2)Oc2ccc(cc2Cl)[C@H]1O [VAN, Vancomycin]
Antimicrobial susceptibility testing pattern (AST) [1]: S
Antimicrobial susceptibility testing pattern (AST) [2]: I
Antimicrobial susceptibility testing pattern (AST) [3]: I

COc1ccccc1C(=O)Oc1cccccc1=O [compound 285]
killing of mupirocin-resistant MDRSA Sa #10 [4]: can kill
solubility in DMSO (Solubility; DMSO, Gentamicin at 10 mg/mL): can be dissolved
solubility in water (Solubility; water): not quite soluble
MIC (S. aureus [5]): less than 5 μg/mL
CC50 (mammal cell lines): > 100 µM
incubation time to completely kill S. aureus (S. aureus [6]): 5 to 8 h
inhibition of MDRSA including MRSA strains [7]: can inhibit
solubility in water (reportedly) [8]: insoluble

Daptomyxin
Antimicrobial susceptibility testing pattern (AST) [1]: S

Gentamicin
Antimicrobial susceptibility testing pattern (AST) [1]: S
Antimicrobial susceptibility testing pattern (AST) [2]: R
Antimicrobial susceptibility testing pattern (AST) [3]: S

Penicillin
Antimicrobial susceptibility testing pattern (AST) [2]: R
Antimicrobial susceptibility testing pattern (AST) [3]: R

Trimethoprim-sulfamethoxazole [SXT]
Antimicrobial susceptibility testing pattern (AST) [1]: S
Antimicrobial susceptibility testing pattern (AST) [2]: S
Antimicrobial susceptibility testing pattern (AST) [3]: S
